Paper PMC8591741 (ACS Medicinal Chemistry Letters, 2021)
Entries after “also recorded” stand apart in the source; their conditions may differ.

Key:
HCV gt1b replicon = assay: HCV replicon assay, gt1b; assay type: cell-based, hepatitis C virus; conditions: for potency against gt1b compared with daclatasvir (1), in words: vs 1
HCV gt1a replicon = assay: HCV replicon assay, gt1a; assay type: cell-based, hepatitis C virus

## COC(=O)N[C@H]1CCC[C@H]2CC[C@@H](c3ncc(-c4ccc(-c5ccc(-c6cnc([C@@H]7CCCN7C(=O)[C@@H](NC(=O)OC)C(C)C)[nH]6)cc5)cc4)[nH]3)N2C1=O [Compound 2]
HCV gt1b replicon
  potency against gt1b compared with daclatasvir (1), in words: decreased slightly
HCV gt1a replicon; vs 1
  potency decrease against gt1a compared with daclatasvir (1): ~221 fold

## COC(=O)N[C@H](C(=O)N1CCC[C@H]1c1ncc(-c2ccc(-c3ccc(-c4cnc([C@@H]5CC[C@H]6CCC[C@@H](NC(=O)OC)C(=O)N65)[nH]4)cc3)cc2)[nH]1)C(C)C [Compound 4]
HCV gt1b replicon; vs 2
  gt1b potency regained compared with 2: ~2 fold
HCV gt1a replicon; vs 2
  gt1a potency regained compared with 2: ~27 fold

## COC(=O)N[C@H]1CCC[C@@H]2CC[C@@H](c3ncc(-c4ccc(-c5ccc(-c6cnc([C@@H]7CCCN7C(=O)[C@@H](NC(=O)OC)C(C)C)[nH]6)cc5)cc4)[nH]3)N2C1=O [Compound 5]
HCV gt1b replicon
  potency against gt1b compared with daclatasvir (1), in words: nearly equipotent; also recorded: essentially equipotent
HCV gt1a replicon; vs daclatasvir (1)
  times less potent against gt1a than 1: ~6

## COC(=O)N[C@H](C(=O)N1CC2(C[C@H]1c1ncc(-c3ccc(-c4ccc(-c5cnc([C@@H]6CC[C@H]7CCC[C@H](N(C)C)C(=O)N76)[nH]5)cc4)cc3)[nH]1)OCCO2)C(C)C [Compound 13]
HCV gt1a replicon; vs 5
  less potent than 5 against gt1a: 16 fold
